These results are taken from patent US12679832B2, “Compounds and their uses as CD38 inhibitors” (Nanjing Immunophage Biotech Co., Ltd., priority 2021, dated 2026).

Structures can show the parent of a compound that is named as a salt.

The experiment deals with T1, hCD38 Enzyme (Homo sapiens, UniProt P28907).
T1 construct: purchased Sino Biological Inc 10818-H08H
T1 sequence (P28907 43-300 limits assumed): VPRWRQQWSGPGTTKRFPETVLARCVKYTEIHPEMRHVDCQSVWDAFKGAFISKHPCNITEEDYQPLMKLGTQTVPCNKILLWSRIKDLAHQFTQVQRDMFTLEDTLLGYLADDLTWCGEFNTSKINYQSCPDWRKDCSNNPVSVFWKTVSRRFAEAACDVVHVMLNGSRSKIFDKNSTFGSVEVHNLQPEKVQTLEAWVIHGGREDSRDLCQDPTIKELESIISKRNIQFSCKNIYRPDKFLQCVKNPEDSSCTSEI
Description: CD38 hydrolase enzymatic assay. The experiment is classed as biochemical. Conditions: rhCD38, ε-NAD substrate, 25° C., point reading time 20 mins; read-out: hCD38 Enzyme inhibition IC50. How it is done: Also, a blank sample was prepared with 50 μl of sucrose buffer and no test compounds.
The dynamic reading was performed at 25° C. with excitation light of 300 nm and emission light of 410 nm on the enzyme marker by contacting the above-prepared rhCD38 enzyme working fluid and the above-prepared solutions of the test compounds disclosed herein or the solution of the control. The readings were recorded for a total of 1 hour, and the data were analyzed with the point reading time of 20 mins.
Fluorescence was recorded by a microplate reader. Individual excel files containing fluorescence data were exported and the results were plotted against various drug concentrations and analyzed in GraphPad Prism 7.0 for concentration curve generation.
For the compound `O=C(Nc1cccc(Cl)c1)c1cc(C(F)(F)F)nc(-n2ccnc2)n1` [compound 124, N-(3-chlorophenyl)-2-(1H-imidazol-1-yl)-6-(trifluoromethyl) pyrimidine-4-carboxamide], the IC50 (commonly the concentration that inhibits the measured activity by half) came to 3 nM. For the compound `O=C(NC1CCCCC1)c1cc(N2CCCCC2)cc(-n2ccnc2)n1` [compound 130, N-cyclohexyl-6-(1H-imidazol-1-yl)-4-(piperidin-1-yl)picolinamide], the IC50 was found to be 149 nM. Consider `O=C(Nc1cc(F)ccc1F)c1cc(N2CCCCC2)nc(-n2ccnc2)n1` [compound 135, N-(2,5-difluorophenyl)-2-(1H-imidazol-1-yl)-6-(piperidin-1-yl)pyrimidine-4-carboxamide], for which the concentration for half-maximal inhibition (IC50) turned out to be 36 nM. The result for `Cc1ccc(F)cc1NC(=O)c1cc(N2CCCCC2)nc(-n2ccnc2)n1` [compound 137, N-(5-fluoro-2-methylphenyl)-2-(1H-imidazol-1-yl)-6-(piperidin-1-yl)pyrimidine-4-carboxamide] reads more than 10000 nM; that for `CC1(C)CCC(NC(=O)c2cc(C(F)(F)F)nc(-n3ccnc3)n2)CC1` [compound 138, N-(4,4-dimethylcyclohexyl)-2-(1H-imidazol-1-yl)-6-(trifluoromethyl) pyrimidine-4-carboxamide], 76 nM.

For `CC(C)(C)NC(=O)c1cc(C(F)(F)F)nc(-n2ccnc2)n1` [compound 141, N-(tert-butyl)-2-(1H-imidazol-1-yl)-6-(trifluoromethyl) pyrimidine-4-carboxamide], the IC50 was found to be 1030 nM. The result for `O=C(NC1CCCCC1)c1cc(N2CCCCC2)nc(-n2ccnc2)n1` [compound 144, N-cyclohexyl-2-(1H-imidazol-1-yl)-6-(piperidin-1-yl)pyrimidine-4-carboxamide] reads 46 nM; that for `C[C@H]1CC[C@H](NC(=O)c2cc(C(F)(F)F)nc(-n3ccnc3)n2)CC1` [compound 146, 2-(1H-imidazol-1-yl)-N-((1r,4r)-4-methylcyclohexyl)-6-(trifluoromethyl) pyrimidine-4-carboxamide], 18 nM; that for `C[C@H]1CC[C@H](NC(=O)c2cc(N3CCCCC3)nc(-n3ccnc3)n2)CC1` [compound 147, 2-(1H-imidazol-1-yl)-N-((1r,4r)-4-methylcyclohexyl)-6-(piperidin-1-yl)pyrimidine-4-carboxamide], 70 nM. The result for `CO[C@H]1CC[C@H](NC(=O)c2nc(-n3ccnc3)ccc2C(F)(F)F)CC1` [compound 151, 6-(1H-imidazol-1-yl)-N-((1r,4r)-4-methoxycyclohexyl)-3-(trifluoromethyl) picolinamide] reads 1550 nM; that for `CO[C@H]1CC[C@H](NC(=O)c2ccc(C(F)(F)F)c(-n3ccnc3)n2)CC1` [compound 152, 6-(1H-imidazol-1-yl)-N-((1r,4r)-4-methoxycyclohexyl)-5-(trifluoromethyl) picolinamide], more than 10000 nM.

As to `CO[C@H]1CC[C@H](NC(=O)c2ccnc(-n3cnc(C(F)(F)F)c3)n2)CC1` [compound 153, N-((1r,4r)-4-methoxycyclohexyl)-2-(4-(trifluoromethyl)-1H-imidazol-1-yl) pyrimidine-4-carboxamide], the IC50 is more than 10000 nM. The result for `CO[C@H]1CC[C@H](NC(=O)c2ccnc(-n3ccnc3C(F)(F)F)n2)CC1` [compound 154, N-((1r,4r)-4-methoxycyclohexyl)-2-(2-(trifluoromethyl)-1H-imidazol-1-yl) pyrimidine-4-carboxamide] reads more than 10000 nM. The result for `COCCO[C@H]1CC[C@H](NC(=O)c2cc(C(F)(F)F)nc(-n3ccnc3)n2)CC1` [compound 157, 2-(1H-imidazol-1-yl)-N-((1r,4r)-4-(2-methoxyethoxy)cyclohexyl)-6-(trifluoromethyl) pyrimidine-4-carboxamide] reads 49 nM; that for `C[C@H]1CC[C@H](NC(=O)c2cc(C(F)(F)F)cc(-n3ccnc3)n2)CC1` [compound 158, 6-(1H-imidazol-1-yl)-N-((1r,4r)-4-methylcyclohexyl)-4-(trifluoromethyl) picolinamide], 37 nM; that for `O=C(Nc1cccc(F)c1)c1nc(-n2ccnc2)ccc1C(F)(F)F` [compound 159, N-(3-fluorophenyl)-6-(1H-imidazol-1-yl)-3-(trifluoromethyl) picolinamide], 34 nM. The result for `O=C(Nc1cccc(F)c1)c1ccc(C(F)(F)F)c(-n2ccnc2)n1` [compound 160, N-(3-fluorophenyl)-6-(1H-imidazol-1-yl)-5-(trifluoromethyl) picolinamide] reads 317 nM; that for `CO[C@H]1CC[C@H](NC(=O)c2nc(-n3ccnc3)ncc2C(F)(F)F)CC1` [compound 161, 2-(1H-imidazol-1-yl)-N-((1r,4r)-4-methoxycyclohexyl)-5-(trifluoromethyl) pyrimidine-4-carboxamide], 831 nM. Turning to `O=C(NC1CCNCC1)c1cc(C(F)(F)F)nc(-n2ccnc2)n1` [compound 162, 2-(1H-imidazol-1-yl)-N-(piperidin-4-yl)-6-(trifluoromethyl) pyrimidine-4-carboxamide hydrochloride], the IC50 was more than 10000 nM.

Turning to `O=C(NC1CCOCC1)c1cc(C(F)(F)F)nc(-n2ccnc2)n1` [compound 163, 2-(1H-imidazol-1-yl)-N-(tetrahydro-2H-pyran-4-yl)-6-(trifluoromethyl) pyrimidine-4-carboxamide], the 50% inhibitory concentration (IC50) is 92 nM. The result for `N#Cc1ccc(NC(=O)c2cc(C(F)(F)F)nc(-n3ccnc3)n2)cn1` [compound 164, N-(6-cyanopyridin-3-yl)-2-(1H-imidazol-1-yl)-6-(trifluoromethyl) pyrimidine-4-carboxamide] reads 4 nM. The result for `N#Cc1ccc(NC(=O)c2cc(C(F)(F)F)nc(-n3ccnc3)n2)cc1` [compound 165, N-(4-cyanophenyl)-2-(1H-imidazol-1-yl)-6-(trifluoromethyl) pyrimidine-4-carboxamide] reads 3 nM; that for `O=C(Nc1cncc(F)c1)c1cc(C(F)(F)F)nc(-n2ccnc2)n1` [compound 167, N-(5-fluoropyridin-3-yl)-2-(1H-imidazol-1-yl)-6-(trifluoromethyl) pyrimidine-4-carboxamide], 4 nM; that for `N#Cc1cncc(NC(=O)c2cc(C(F)(F)F)nc(-n3ccnc3)n2)c1` [compound 169, N-(5-cyanopyridin-3-yl)-2-(1H-imidazol-1-yl)-6-(trifluoromethyl) pyrimidine-4-carboxamide], 20 nM. The result for `O=C(Nc1ccc(F)cc1)c1cc(C(F)(F)F)nc(-n2ccnc2)n1` [compound 172, N-(4-fluorophenyl)-2-(1H-imidazol-1-yl)-6-(trifluoromethyl) pyrimidine-4-carboxamide] reads 8.2 nM. For `O=C(Nc1ccc(F)c(F)c1)c1cc(C(F)(F)F)nc(-n2ccnc2)n1` [compound 173, N-(3,4-difluorophenyl)-2-(1H-imidazol-1-yl)-6-(trifluoromethyl) pyrimidine-4-carboxamide], the IC50 turned out to be 6.8 nM. In the case of `O=C(Nc1cc(F)cc(F)c1)c1cc(C(F)(F)F)nc(-n2ccnc2)n1` [compound 174, N-(3,5-difluorophenyl)-2-(1H-imidazol-1-yl)-6-(trifluoromethyl) pyrimidine-4-carboxamide], the IC50 worked out at 5.4 nM.
